SMILES strings stand for the structures. ≈ marks a conversion by molar mass, not a printed value. Where two headings read alike, the source gives them in different places.

Series [1] relates to 48 rhinovirus types and coxsackievirus A21, B3, enterovirus 70 and echovirus 11. Particulars: cited from earlier work.
The conditions of series [2]: cited from earlier work.
The subject of the next series is Entero-virus 70. The series is described as follows: Cytopathic effect (CPE) inhibition assay. Conditions: Enterovirus D, MRC5, 48 h; Table 3; MRC-5, 37° C., 2 days. In kind it is cell-based, Enterovirus 70. (Cytopathic effects are the visible damage that an infection or toxin causes in cultured cells.)
The next series can be described thus: in vitro. Particulars: human.
The subject of a further series is Coxsackie-virus B1. Nature of the series: Cytopathic effect (CPE) inhibition assay. Type of series: cell-based, Coxsackievirus B1. Conditions: Enterovirus B, HeLa37, 48 h.
A further series relates to Coxsackie-virus B3. Nature of the series: Cytopathic effect (CPE) inhibition assay. Type of series: cell-based, Coxsackievirus B3. Particulars: Enterovirus B, HeLa37, 48 h.
Series [3] can be described thus: Cytotoxicity (CC50) in mock-infected cells, MTT assay, Experimental Example 1. Particulars: human.
The next series has as its system Coxsackie-virus A24 (HG). The series is described as follows: Cytopathic effect (CPE) inhibition assay. Conditions: Enterovirus C, MRC5, 48 h; Table 3; MRC-5, 37° C., 2 days. Type of series: cell-based, Coxsackievirus A24.
The next series relates to Polio-virus 3. Nature of the series: microbe, parasite or virus in culture. Type of series: cell-based, Poliovirus 3. Particulars: Enterovirus C, HeLa37, 48 h, read-out: Polio-virus 3 EC50.
The conditions of series [4]: in vivo, cited from earlier work.
For series [5] the following is noted: in vivo; cited from earlier work.
The conditions of series [6]: in vivo; cited from earlier work. This is another data set of the same source.
The mark [7] stands for this setting: Table 3, HeLa, 37° C., 2 days, read-out: EC50 Coxsackie-virus B1.
The mark [8] stands for this setting: Table 3, HeLa, 37° C., 2 days, read-out: EC50 Coxsackie-virus B3.
Where [9] appears, read: Table 4, HeLa, 37° C., 2 days, read-out: Coxsackie-virus B1 EC50.
[10] abbreviates: Table 4, HeLa, 37° C., 2 days, read-out: Coxsackie-virus B3 EC50.
[11] abbreviates: read-out: Coxsackie-virus B1 EC50.
The mark [12] stands for this setting: read-out: Coxsackie-virus B3 EC50.

For the compound `CCOC(=O)/C=C/[C@H](C[C@@H]1CCNC1=O)NC(=O)[C@@H](CC(=O)[C@@H](NC(=O)c1cc(C)on1)C(C)C)Cc1ccc(F)cc1` [AG 7088], the “concentration range with an effect in the cell culture” value in series [1] was “nanomolar concentration range”.
In the case of `CC(C)S(=O)(=O)n1c(N)nc2ccc(/C(=N/O)c3ccccc3)cc21` [Enviroxime], in [2] (clinical studies), the “therapeutic effects in clinical studies” value is given as “insignificant or few therapeutic effects”. In series [2] (in vivo), the “pharmacokinetics in clinical studies” value is listed as “bad” and the “side effects in clinical studies” value is reported as “unwanted side effects”.
Turning to `CC(=O)Oc1cc(C)c(C)cc1C1(OC(C)=O)C(=O)c2ccccc2C1=O` [Example 2, 2-(2-Acetoxy-1,3-dioxo-2,3-dihydro-1H-inden-2-yl)-4,5-dimethylphenyl acetate], the melting point (usually the temperature of the solid-liquid transition) lay in the range of 206 to 207 °C. In addition, the EC50 (as a rule, the concentration that produces a half-maximal response) with Entero-virus 70 is under 1 µg/mL. Also, the CC50 in the series “in vitro” (CC50) was over 100 µg/mL.
In the same order, the values of `CC(=O)Oc1cc(Cl)ccc1C1(OC(C)=O)C(=O)c2ccccc2C1=O` [Example 3, 2-(2-Acetoxy-1,3-dioxo-2,3-dihydro-1H-inden-2-yl)-5-chlorophenyl acetate] are 148 to 150 °C, 0.013 µg/mL and 50.7 µg/mL.
In turn, `CCc1ccc(C2(OC(C)=O)C(=O)c3ccccc3C2=O)c(OC(C)=O)c1` [Example 6, 2-(2-Acetoxy-1,3-dioxo-2,3-dihydro-1H-inden-2-yl)-5-ethylphenyl acetate] had a melting point of 136 to 137 °C. Besides, the EC50 in the series on Coxsackie-virus B1 (setting [7]) is under 0.01 µg/mL. For the same compound, the EC50 with Coxsackie-virus B3 (setting [8]) was determined as 0.035 µg/mL. This compound yielded an EC50 with Entero-virus 70 of under 0.01 µg/mL. For the same compound, the CC50 in the series “in vitro” (CC50) came out at 23.5 µg/mL.
For the compound `CC(C)c1ccc(C2(OC(=O)N(C)C)C(=O)c3ccccc3C2=O)c(OC(=O)N(C)C)c1` [Example 31, Dimethyl-carbamic acid 2-(2-dimethylcarbamoyloxy-1,3-dioxo-indan-2-yl)-5-isopropyl-phenyl ester], the melting point fell in the range of 203 to 205 °C. Besides, in [3], the CC50 was over 100 µg/mL.
On to `CCC(=O)NC1(c2ccc(C(C)C)cc2OC(=O)CC)C(=O)c2ccccc2C1=O` [Example 68, 2-(1,3-Dioxo-2-propionamido-2,3-dihydro-1H-inden-2-yl)-5-isopropylphenyl propionate], for which the melting point is 173 to 175 °C. In the series on Coxsackie-virus B1 (setting [7]), the EC50 was under 0.01 µg/mL. Also, the EC50 in the series with Coxsackie-virus B3 (setting [8]) was under 0.01 µg/mL. In the series on Coxsackie-virus A24 (HG), the EC50 is under 1 µg/mL. In the series “in vitro” (CC50), the CC50 turned out to be 66 µg/mL (≈ 162 µM).
In the case of `CC(C)c1ccc(C2(NC(=O)c3ccccc3)C(=O)c3ccccc3C2=O)c(OC(=O)c2ccccc2)c1` [Example 70, 2-(2-Benzamido-1,3-dioxo-2,3-dihydro-1H-inden-2-yl)-5-isopropylphenyl benzoate], the melting point lay within 138 to 140 °C. Besides, the EC50 with Coxsackie-virus B1 (setting [7]) was under 0.01 µg/mL. The EC50 in the series with Coxsackie-virus B3 (setting [8]) was under 0.01 µg/mL. The compound also came in with an EC50 with Coxsackie-virus A24 (HG) of under 1 µg/mL. The same compound yielded a CC50 in the series “in vitro” (CC50) of over 117 µg/mL.
Turning to `CCCC(=O)NC1(c2ccc(C(C)C)cc2OC(=O)CCC)C(=O)c2cccc(N)c2C1=O` (centres unmarked) [Example 85, 2-(4-Amino-2-butyramido-1,3-dioxo-2,3-dihydro-1H-inden-2-yl)-5-isopropylphenyl butyrate], the values for the EC50 in the series on Coxsackie-virus B1 (setting [9]), in the series on Coxsackie-virus B3 (setting [10]) and in the series with Polio-virus 3 were under 0.01 µg/mL, under 0.03 µg/mL and 0.015 µg/mL (≈ 0.0333 µM), respectively. For the same compound, the CC50 in “in vitro” (Picorna-virus CC50) was found to be 45.9 µg/mL (≈ 102 µM).
Consider `CCCCOC(=O)Oc1cc(C(C)C)ccc1C1(NC(C)=O)C(=O)c2cccc(N)c2C1=O` (centres unmarked) [Example 96, 2-(2-Acetamido-4-amino-1,3-dioxo-2,3-dihydro-1H-inden-2-yl)-5-isopropylphenyl butyl carbonate2-(2-acetamido-4-amino-1,3-dioxo-2,3-dihydro-1H-inden-2-yl)-5-isopropylphenyl butyl carbonate], for which the EC50 was under 0.01 µg/mL with Coxsackie-virus B1 (setting [9]), under 0.01 µg/mL in the series on Coxsackie-virus B3 (setting [10]) and 0.03 µg/mL (≈ 0.0663 µM) in the series with Polio-virus 3. Moreover, in the series “in vitro” (Picorna-virus CC50), the CC50 came out at 48.9 µg/mL (≈ 108 µM).
Take `CNC(=O)Oc1cc(C(C)C)ccc1C1(NC(C)=O)C(=O)c2ccccc2C1=O` [Example 97, 2-(2-Acetamido-1,3-dioxo-2,3-dihydro-1H-inden-2-yl)-5-isopropylphenyl methylcarbamate]: the EC50 in the series with Coxsackie-virus B1 (setting [11]) and in the series on Coxsackie-virus B3 (setting [12]) was under 0.01 µg/mL in each case. The CC50 in series [3] amounted to 45.1 µg/mL (≈ 114 µM).
In the case of `CC(=O)NC1(c2ccc(C(C)C)cc2OC(=O)N(C)C)C(=O)c2ccccc2C1=O` [Example 98, Dimethyl-carbamic acid 2-(2-acetylamino-1,3-dioxo-indan-2-yl)-5-isopropyl-phenyl ester], in the series with Coxsackie-virus B1 (setting [11]), the EC50 worked out at 0.013 µg/mL (≈ 0.0318 µM). The compound also returned a CC50 in series [3] of over 100 µg/mL.
For the compound `CC(=O)NC1(c2ccc(C(C)C)cc2OC(=O)N(C)C)C(=O)c2cccc(N)c2C1=O` (centres unmarked) [Example 100, 2-(2-Acetamido-4-amino-1,3-dioxo-2,3-dihydro-1H-inden-2-yl)-5-isopropylphenyl dimethylcarbamate], the EC50 with Coxsackie-virus B1 (setting [11]) and in the series on Coxsackie-virus B3 (setting [12]) was under 0.01 µg/mL in each case. This compound also came in with a CC50 in series [3] of over 100 µg/mL.
Consider `CCNC(=O)Oc1cc(C(C)C)ccc1C1(NC(C)=O)C(=O)c2cccc(N)c2C1=O` (centres unmarked) [Example 103, 2-(2-Acetamido-4-amino-1,3-dioxo-2,3-dihydro-1H-inden-2-yl)-5-isopropylphenyl ethylcarbamate], for which the EC50 with Coxsackie-virus B1 (setting [9]) is under 0.01 µg/mL; with Coxsackie-virus B3 (setting [10]), under 0.01 µg/mL; in the series on Polio-virus 3 it was 0.013 µg/mL (≈ 0.0307 µM). Also, the CC50 in the series “in vitro” (Picorna-virus CC50) came to 26.3 µg/mL (≈ 62 µM).
For `Cc1cc(CCCOc2c(C)cc(-c3noc(C(F)(F)F)n3)cc2C)on1` [Pleconaril], the oral bioavailability entry in series [4] (po) was “very good”.
Consider `Cc1cc(CCCCCOc2c(Cl)cc(C3=NCCO3)cc2Cl)on1` [WIN 54954], for which the metabolization and excretion entry in series [5] is given as “rapid”. The side effects result in series [6] was “skin rash”.
Consider `CCC(=O)C(CCCCCCOc1ccc(OC)cc1Cl)C(=O)CC` [arildone], for which, in series [4], the bioavailability result is reported as “low”.
With `Cc1cc(CCCCCCCOc2ccc(C3=NCCO3)cc2)on1` [disoxaril], the bioavailability entry in series [4] was “low”. Besides, in series [5], the metabolization and excretion result is recorded as “rapid”.
